According to article PMC3368874, “Characterization of 4-HNE Modified L-FABP Reveals Alterations in Structural and Functional Dynamics” (PLoS ONE, 2012):
One block for each molecule: values may come before it.

How the values were obtained:
[1] = target: T1, 4-HNE modified rL-FABP (Mus musculus, UniProt P12710); test: ANS equilibrium binding to 4-HNE treated rL-FABP (fluorescence); conditions: saturation analyses
T1 construct: made in house; host or cells: Escherichia coli BL21 (DE3)
T1 sequence (P12710 1-127): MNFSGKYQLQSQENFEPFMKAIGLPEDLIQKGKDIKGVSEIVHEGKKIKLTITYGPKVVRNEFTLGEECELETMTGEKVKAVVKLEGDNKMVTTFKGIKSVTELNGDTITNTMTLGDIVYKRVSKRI
Protocol: Steady-state fluorescence spectra were measured using a HORIBA JOBIN YVON FluoroMax-3 Fluorometer (Edison, NJ USA). The binding of ANS to rL-FABP was monitored following excitation at 370 nm and emission at 475 nm, with slits set at 2 and 4 nm, respectively. Measurements were taken at ambient temperature in a 0.7 mL fluorescence cuvette (Starna Cells, Atascadero, CA). Equilibrium binding studies were conducted with saturating concentrations of ANS according to previous studies, [30] with slight modifications. Briefly, ANS (0–45 µM) was titrated into 1 µM rL-FABP in 50 mM tricine buffer (pH 8.0), mixed for 30 seconds, and emission spectra were recorded. rL-FABP was either treated with 4-HNE (0.1X [5.93 µM], 1X [53.93 µM], or 5X [245.09 µM]) or the arginine blocker phenylglyoxal (PG) (10 mM), or a combination of the two (PG +5X). Following treatments, protein was dialyzed overnight in tricine buffer, pH 8.0. Preparation of ANS was conducted according to Denicola et al., where it was solubilized in absolute ethanol and quantified at Abs372 with an extinction coefficient of 8,000 cm^−1·M^−1 prior to use.
Statistical analysis and generation of graphs was performed using GraphPad Prism (v 4.02; GraphPad Software, San Diego, CA) and SigmaPlot (v10.0; Systat Software, San Jose, CA). Statistical differences between control and treated samples were assessed using a paired Student’s t test or a one-way ANOVA with Tukey’s post-test. Differences were considered significant if p<0.05. Nonlinear regression (curve fit) analysis was performed using a two-site binding hyperbola (eq 1), where ΔF is the enhancement in fluorescence intensity upon the binding of ANS to L-FABP to a point of saturation (Bmax). [drawing 1] (1)

[2] = target: T2, apo rL-FABP (Mus musculus, UniProt P12710); test: Thermal denaturation of apo rL-FABP (UV-monitored)
T2 construct: made in house; host or cells: Escherichia coli BL21 (DE3)
T2 sequence (P12710 1-127): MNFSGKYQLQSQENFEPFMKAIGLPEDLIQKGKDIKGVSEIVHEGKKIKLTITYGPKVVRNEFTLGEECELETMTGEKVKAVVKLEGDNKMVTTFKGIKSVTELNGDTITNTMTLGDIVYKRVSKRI
Protocol: (§1) The stability of rL-FABP was assessed using UV-monitored heating experiments. Native (apo and holo) and 4-HNE modified (apo and holo) rL-FABP (0.8 mg/ml) was thermally denatured in 50 mM tricine buffer (pH 8.0) at 40–95°C over 1.5 hours in a 0.7 mL quartz cell (Starna Cells). Absorbance of rL-FABP was monitored at 260–360 nm using a Chirascan Plus Spectrometer (Applied Photophysics, Leatherhead, Surrey, UK) once per minute. Temperature was continuously ramped 1°C/min. Light scattering was recorded continuously at 360 nm to monitor protein aggregation. Temperature of aggregation (Tm) was determined using Global Analysis T-Ramp software provided by Applied Photophysics (Pro-Data Global3 v1.1.0) following baseline correction.

[3] = target: T3, holo rL-FABP (Mus musculus, UniProt P12710); test: Thermal denaturation of holo rL-FABP (UV-monitored); conditions: semi-quantitative
T3 construct: made in house; host or cells: Escherichia coli BL21 (DE3)
T3 sequence (P12710 1-127): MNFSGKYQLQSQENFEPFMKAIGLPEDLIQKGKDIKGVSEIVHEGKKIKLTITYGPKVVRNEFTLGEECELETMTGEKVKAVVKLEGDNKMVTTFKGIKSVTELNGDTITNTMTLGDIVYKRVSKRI
Protocol: as §1

[4] = set-up: method as in PMID 12437335; conditions: cited from earlier work
[5] = target: T4, rL-FABP (Mus musculus, UniProt P12710); test: Displacement of ANS by fatty acids, WT rL-FABP; type: binding
T4 construct: made in house; host or cells: Escherichia coli BL21 (DE3)
T4 sequence (P12710 1-127): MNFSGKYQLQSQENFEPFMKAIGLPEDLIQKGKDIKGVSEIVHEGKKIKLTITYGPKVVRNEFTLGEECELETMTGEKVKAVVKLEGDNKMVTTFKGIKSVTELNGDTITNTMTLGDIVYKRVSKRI
Protocol: (§2) Lipid displacement assays were adapted from previous publications, [30]. Briefly, lipids were used to displace ANS bound to rL-FABP to assess how 4-HNE modification affects affinity towards more biologic ligands. Lipid stocks were diluted in absolute ethanol (10 mM, 5 mM, 1 mM, 0.1 mM) and prepared in a nitrogen gas chamber. Using conditions similar to ANS binding, increasing concentrations of FAs [stearate (SA), oleate (OA), and LA] were titrated into a pre-equilibrated solution containing 45 µM ANS, 1 µM r-LFABP, and 50 mM tricine (pH 8.0). The sample was mixed for an additional 30 seconds and the excitation and emission of ANS was measured as mentioned, where the loss of fluorescence indicates affinity towards the lipid.
(§3) For the displacement assays, one-site inhibition analysis of the data was utilized based on the fit of the data (instead of a two-site inhibition analysis) (eq2). Fluorescence counts that are inhibitable are denoted as bi, and residual counts are br. The concentration of OA, SA or LA is denoted as [FA]. The Hill constant, η, indicates the cooperativity between the binding sites, where if η >1 the sites are positively cooperative, η <1 the site are negatively cooperative, and if η = 1 the sites are non-cooperative. [drawing 2] (2)

[6] = target: T5, 4-HNE adducted rL-FABP (Mus musculus, UniProt P12710); test: Displacement of ANS by fatty acids, 1X 4-HNE treated rL-FABP; type: binding
T5 construct: made in house; host or cells: Escherichia coli BL21 (DE3)
T5 sequence (P12710 1-127): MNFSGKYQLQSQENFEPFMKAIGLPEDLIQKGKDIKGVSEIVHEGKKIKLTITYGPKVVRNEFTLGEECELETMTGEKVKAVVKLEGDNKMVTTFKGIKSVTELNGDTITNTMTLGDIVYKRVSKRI
Protocol: as §2, §3

reduction of capacity for ligand when adducted by 4-HNE [1]: approximately 50%
Tm of apo rL-FABP ([2]; 0.1X 4-HNE (4.93 µM)): 70.09±0.004 °C
Tm of apo rL-FABP ([2]; 1X 4-HNE (49.26 µM)): 68.56±0.05 °C
Tm of apo rL-FABP ([2]; 5X 4-HNE (246.31 µM)): 66.38±0.15 °C
ΔTm of apo L-FABP by 4-HNE adduction ([2]; P<0.01): 5.44 °C
Tm of holo rL-FABP ([3]; 0.1X 4-HNE (4.93 µM)): 83.84±0.39 °C
Tm of holo rL-FABP ([3]; 1X 4-HNE (49.26 µM)): 84.89±0.48 °C
Tm of holo rL-FABP ([3]; 5X 4-HNE (246.31 µM)): 83.698±0.53 °C
Molecule: CCCCCC(O)C=CC=O (centres unmarked) [4-HNE, 4-hydroxy-2-nonenal]
half-life [4]: ~2 min

br (counts residual) [5]: 145,800±14,400 AFU
n (hill coefficient) [5]: 2.75±0.264
bi (counts inhibitable) ([5]; 45 µM ANS, 1 µM protein): 698,800±19,400 AFU
Ki ([5]; 45 µM ANS, 1 µM protein, read-out: ki (inhibition constant)): 1.19 ± 0.13 µM
bi (counts inhibitable) ([6]; 1X 4-HNE (53.95 µM) treated rL-FABP): 411,800±36,800 AFU
Ki ([6]; 1X 4-HNE (53.95 µM) treated rL-FABP, read-out: ki (inhibition constant)): 4.41 ± 1.66 µM
br (counts residual) ([6]; 1X 4-HNE treated rL-FABP): 81,300±30,500 AFU
n (hill coefficient) ([6]; 1X 4-HNE treated rL-FABP): 2.74±0.37
reduction of maximal binding to the FA by 4-HNE ([6]; 1X 4-HNE treated versus WT rL-FABP): 41%
Molecule: CCCCCCCCCCCCCCCCCC(=O)O [Stearic Acid]

B1: apo rL-FABP: purified, delipidated recombinant mouse liver fatty acid-binding protein (unbound) (protein, UniProt P12710 1-127, looked up)
Fatty acid-binding protein, …: MNFSGKYQLQSQENFEPFMKAIGLPEDLIQKGKDIKGVSEIVHEGKKIKLTITYGPKVVRNEFTLGEECELETMTGEKVKAVVKLEGDNKMVTTFKGIKSVTELNGDTITNTMTLGDIVYKRVSKRI
modifications: delipidated
Tm (temperature of aggregation) ([2]; native apo rL-FABP, 0X 4-HNE): 71.82±0.09 °C

B2: holo rL-FABP: recombinant mouse L-FABP incubated with 1 mM linoleic acid (lipid-bound) (protein, UniProt P12710 1-127, looked up)
Fatty acid-binding protein, …: MNFSGKYQLQSQENFEPFMKAIGLPEDLIQKGKDIKGVSEIVHEGKKIKLTITYGPKVVRNEFTLGEECELETMTGEKVKAVVKLEGDNKMVTTFKGIKSVTELNGDTITNTMTLGDIVYKRVSKRI
modifications: linoleic acid bound
Tm (temperature of aggregation) ([3]; native holo rL-FABP (linoleic acid bound)): 86.09±0.57 °C
